Experimental data published in patent publication US20110201818A1, “POLO-LIKE KINASE INHIBITORS” (TAKEDA PHARMACEUTICAL COMPANY LIMITED, priority 2007, published 2011).
pIC50: −log10 of the molar value. Read-outs that look alike come from different tables or passages of the source.

Key:
human PLK1 = biological target: T1, human PLK1 (Homo sapiens, UniProt P53350); test: PLK1 in vitro enzymatic activity assay (phosphorylation of alpha casein by recombinant PLK1); format: biochemical; settings: for IC50: recombinant FLAG-tagged PLK1, alpha casein substrate, 500 nmol/L ATP, 40 min at room temperature, read-out: pIC50 (PLK1) (converted)
T1 construct: FLAG (DYKDDDDK) (N); made in house; host or cells: Sf21 insect cells, recombinant baculovirus (pFASTBAC1, Bac-to-Bac)
Method in brief: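 Recombinant PLK1 from baculovirus-infected Sf21 cells (50 ng) phosphorylated 3 μg alpha casein for 40 min at room temperature in HEPES pH 7.5, Mg acetate, DTT buffer with 500 nmol/L ATP plus [γ-32P]ATP. TCA-precipitated phosphoprotein was filter-captured, washed, and counted by scintillation.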

T1 sequence (P53350 with tags, fused parts or gaps): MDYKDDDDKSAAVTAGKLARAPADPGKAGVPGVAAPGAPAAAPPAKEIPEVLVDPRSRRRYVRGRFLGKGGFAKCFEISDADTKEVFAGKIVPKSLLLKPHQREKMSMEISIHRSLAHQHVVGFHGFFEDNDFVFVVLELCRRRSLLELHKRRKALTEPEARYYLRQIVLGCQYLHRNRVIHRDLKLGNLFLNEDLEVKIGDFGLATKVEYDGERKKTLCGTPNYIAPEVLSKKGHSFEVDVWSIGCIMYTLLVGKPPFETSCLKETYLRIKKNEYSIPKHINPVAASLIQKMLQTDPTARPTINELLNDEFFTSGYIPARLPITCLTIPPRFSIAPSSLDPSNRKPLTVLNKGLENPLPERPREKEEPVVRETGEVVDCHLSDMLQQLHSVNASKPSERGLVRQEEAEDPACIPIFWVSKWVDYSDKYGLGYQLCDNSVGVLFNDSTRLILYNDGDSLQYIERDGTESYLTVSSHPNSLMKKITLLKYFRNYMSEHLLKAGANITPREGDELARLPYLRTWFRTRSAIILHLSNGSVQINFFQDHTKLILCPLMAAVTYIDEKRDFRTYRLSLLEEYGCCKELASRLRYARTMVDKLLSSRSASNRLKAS

| IC50 (human PLK1) [nM] | melting point [°C] | SMILES | pIC50 (human PLK1) |
| --- | --- | --- | --- |
| ≤ 2 | 258 to 263 | COc1cc(C(=O)N[C@H]2CCNC2)ccc1Nc1ncc2c(n1)N(C1CCCCC1)CC(F)(F)C(=O)N2C [Compound 72, (S)-4-(9-cyclohexyl-7,7-difluoro-5-methyl-6-oxo-6,7,8,9-tetrahydro-5H-pyrimido[4,5-b][1,4]diazepin-2-ylamino)-3-methoxy-N-(pyrrolidin-3-yl)benzamide] | – |
| ≤ 2 | 195 to 198 | COc1cc(C(=O)N[C@@H]2CCNC2)ccc1Nc1ncc2c(n1)N(C1CCCCC1)CC(F)(F)C(=O)N2C [Compound 73, (R)-4-(9-cyclohexyl-7,7-difluoro-5-methyl-6-oxo-6,7,8,9-tetrahydro-5H-pyrimido[4,5-b][1,4]diazepin-2-ylamino)-3-methoxy-N-(pyrrolidin-3-yl)benzamide] | – |
| ≤ 2 | 190 to 191 | COc1cc(C(=O)NC2CCN(C(=O)CN(C)C)CC2)ccc1Nc1ncc2c(n1)N(C1CCCCC1)CC(F)(F)C(=O)N2C [Compound 71, 4-(9-cyclohexyl-7,7-difluoro-5-methyl-6-oxo-6,7,8,9-tetrahydro-5H-pyrimido[4,5-b][1,4]diazepin-2-ylamino)-N-(1-(2-(dimethylamino)acetyl)piperidin-4-yl)-3-methoxybenzamide] | – |
| ≤ 2 | 157 to 162 | COc1cc(C(=O)NC2CN(C)C2)ccc1Nc1ncc2c(n1)N(C1CCCC1)CC(F)(F)C(=O)N2C [Compound 4, 4-(9-Cyclopentyl-7,7-difluoro-5-methyl-6-oxo-6,7,8,9-tetrahydro-5H-pyrimido[4,5-b][1,4]diazepin-2-ylamino)-3-methoxy-N-(1-methylazetidin-3-yl)benzamide] | – |
| ≤ 2 | 213 to 215 | COc1cc(C(=O)NC2CCN(CC(F)(F)F)CC2)ccc1Nc1ncc2c(n1)N(C1CCCCC1)CC(F)(F)C(=O)N2C [Compound 50, 4-(9-cyclohexyl-7,7-difluoro-5-methyl-6-oxo-6,7,8,9-tetrahydro-5H-pyrimido[4,5-b][1,4]diazepin-2-ylamino)-3-methoxy-N-(1-(2,2,2-trifluoroethyl)piperidin-4-yl)benzamide] | – |
| ≤ 2 | 208 to 214 | COc1cc(C(=O)NC2CCC(N(C)C)CC2)ccc1Nc1ncc2c(n1)N(C1CCCCC1)CC(F)(F)C(=O)N2C (stereo not drawn) [Compound 49, 4-(9-cyclohexyl-7,7-difluoro-5-methyl-6-oxo-6,7,8,9-tetrahydro-5H-pyrimido[4,5-b][1,4]diazepin-2-ylamino)-N-(4-(dimethylamino)cyclohexyl)-3-methoxybenzamide] | – |
| ≤ 2 | – | COc1cc(C(=O)NC[C@H](C)O)ccc1Nc1ncc2c(n1)N(C1CCCCC1)CC(F)(F)C(=O)N2C [Compound 63, (S)-4-(9-cyclohexyl-7,7-difluoro-5-methyl-6-oxo-6,7,8,9-tetrahydro-5H-pyrimido[4,5-b][1,4]diazepin-2-ylamino)-N-(2-hydroxypropyl)-3-methoxybenzamide] | – |
| ≤ 2 | – | COc1cc(C(=O)NN2CCN(CC3CC3)CC2)ccc1Nc1ncc2c(n1)N(C1CCCCC1)CC(F)(F)C(=O)N2C [Compound 80, 4-(9-cyclohexyl-7,7-difluoro-5-methyl-6-oxo-6,7,8,9-tetrahydro-5H-pyrimido[4,5-b][1,4]diazepin-2-ylamino)-N-(4-(cyclopropylmethyl)piperazin-1-yl)-3-methoxybenzamidemethoxybenzamide] | – |
| – | 168 to 174 | COc1cc(C(=O)NN2CCN(C)CC2)ccc1Nc1ncc2c(n1)N(C1CCCC1)CC(F)(F)C(=O)N2C [Compound 6, 4-(9-cyclopentyl-7,7-difluoro-5-methyl-6-oxo-6,7,8,9-tetrahydro-5H-pyrimido[4,5-b][1,4]diazepin-2-ylamino)-3-methoxy-N-(4-methylpiperazin-1-yl)benzamide] | – |
| ≤ 2 | – | COc1cc(C(=O)NC2CCNCC2)ccc1Nc1ncc2c(n1)N(C1CCCCC1)CC(F)(F)C(=O)N2C [Compound 70, 4-(9-cyclohexyl-7,7-difluoro-5-methyl-6-oxo-6,7,8,9-tetrahydro-5H-pyrimido[4,5-b][1,4]diazepin-2-ylamino)-3-methoxy-N-(piperidin-4-yl)benzamide] | – |
| > 2 | 98 to 99 | COc1cc(C(=O)N[C@@H]2CCN(C)C2)ccc1Nc1ncc2c(n1)N(C1CCCCC1)CC(F)(F)C(=O)N2C [Compound 39, (R)-4-(9-cyclohexyl-7,7-difluoro-5-methyl-6-oxo-6,7,8,9-tetrahydro-5H-pyrimido[4,5-b][1,4]diazepin-2-ylamino)-3-methoxy-N-(1-methylpyrrolidin-3-yl)benzamide] | – |

The next lines start with the compound.

| SMILES | IC50 (human PLK1) [nM] | melting point [°C] | pIC50 (human PLK1) |
| --- | --- | --- | --- |
| C=CC1(F)CN(C2CCCC2)c2nc(Nc3ccc(C(=O)N[C@@H]4CCCNC4)cc3OC)ncc2N(C)C1=O (stereo partly drawn) [Compound 102, 4-(9-cyclopentyl-7-fluoro-5-methyl-6-oxo-7-vinyl-6,7,8,9-tetrahydro-5H-pyrimido[4,5-b][1,4]diazepin-2-ylamino)-3-methoxy-N—((R)-piperidin-3-yl)benzamide] | ≤ 2 | 169 to 172 | – |
| CN1C(=O)C(F)(F)CN(C2CCCC2)c2nc(Nc3ccc4c(c3)NC(=O)CO4)ncc21 [Compound 18, 6-(9-cyclopentyl-7,7-difluoro-5-methyl-6-oxo-6,7,8,9-tetrahydro-5H-pyrimido[4,5-b][1,4]diazepin-2-ylamino)-2H-benzo[b][1,4]oxazin-3(4H)-one] | > 2 | – | – |
| CN1C(=O)C(F)(F)CN(C2CCCC2)c2nc(Nc3ccc4[nH]ccc4c3)ncc21 [Compound 20, 2-(1H-Indol-5-ylamino)-9-cyclopentyl-7,7-difluoro-5-methyl-8,9-dihydro-5H-pyrimido[4,5-b][1,4]diazepin-6(7H)-one] | > 2 | – | – |
| CCN1CCN(NC(=O)c2ccc(Nc3ncc4c(n3)N(C3CCCCC3)CC(F)(F)C(=O)N4C)c(OC)c2)CC1 [Compound 78, 4-(9-cyclohexyl-7,7-difluoro-5-methyl-6-oxo-6,7,8,9-tetrahydro-5H-pyrimido[4,5-b][1,4]diazepin-2-ylamino)-N-(4-ethylpiperazin-1-yl)-3-methoxybenzamide] | – | – | ≥ 8.70 |
| C=C[C@@]1(F)CN(C2CCCC2)c2nc(Nc3ccc(C(=O)NC4CCN(CCOP(=O)(O)O)CC4)cc3OC)ncc2N(C)C1=O [Compound 111, (R)-2-(4-(4-(9-cyclopentyl-7-fluoro-5-methyl-6-oxo-7-vinyl-6,7,8,9-tetrahydro-5H-pyrimido[4,5-b][1,4]diazepin-2-ylamino)-3-methoxybenzamido)piperidin-1-yl)ethyl dihydrogen phosphate] | ≤ 2 | – | – |
| CCc1cc(C(=O)NC2CCN(C)CC2)ccc1Nc1ncc2c(n1)N(C1CCCC1)CC(F)(F)C(=O)N2C [Compound 27, 4-(9-Cyclopentyl-7,7-difluoro-5-methyl-6-oxo-6,7,8,9-tetrahydro-5H-pyrimido[4,5-b][1,4]diazepin-2-ylamino)-3-ethyl-N-(1-methylpiperidin-4-yl)benzamide] | ≤ 2 | – | – |
| COc1cc(C(=O)NC2CCN(CCO)CC2)c(F)cc1Nc1ncc2c(n1)N(C1CCCC1)CC(F)(F)C(=O)N2C [Compound 117, 4-(9-Cyclopentyl-7,7-difluoro-5-methyl-6-oxo-6,7,8,9-tetrahydro-5H-pyrimido[4,5-b][1,4]diazepin-2-ylamino)-2-fluoro-N-(1-(2-hydroxyethyl)piperidin-4-yl)-5-methoxybenzamide] | ≤ 2 | – | – |
| COc1cc(C(=O)N[C@@H]2CCCNC2)c(F)cc1Nc1ncc2c(n1)N(C1CCCC1)CC(F)(F)C(=O)N2C [Compound 119, (R)-4-(9-cyclopentyl-7,7-difluoro-5-methyl-6-oxo-6,7,8,9-tetrahydro-5H-pyrimido[4,5-b][1,4]diazepin-2-ylamino)-2-fluoro-5-methoxy-N-(piperidin-3-yl)benzamide] | > 2 | – | – |
| CN(C)CCOc1ccc(Nc2ncc3c(n2)N(C2CCCC2)CC(F)(F)C(=O)N3C)cc1 [Compound 17, 9-cyclopentyl-2-(4-(2-(dimethylamino)ethoxy)phenylamino)-7,7-difluoro-5-methyl-8,9-dihydro-5H-pyrimido[4,5-b][1,4]diazepin-6(7H)-one] | > 2 | – | – |
| COc1cc(C(=O)N2CCN(CC3CC3)CC2)c(F)cc1Nc1ncc2c(n1)N(C1CCCC1)CC(F)(F)C(=O)N2C [Compound 135, 9-cyclopentyl-2-(4-(4-(cyclopropylmethyl)piperazine-1-carbonyl)-5-fluoro-2-methoxyphenylamino)-7,7-difluoro-5-methyl-8,9-dihydro-5H-pyrimido[4,5-b][1,4]diazepin-6(7H)-one] | > 2 | – | – |
| COc1cc(C(=O)NC2CC3CCC(C2)N3C)ccc1Nc1ncc2c(n1)N(C1CCCCC1)CC(F)(F)C(=O)N2C (stereo not drawn) [Compound 51, 4-(9-cyclohexyl-7,7-difluoro-5-methyl-6-oxo-6,7,8,9-tetrahydro-5H-pyrimido[4,5-b][1,4]diazepin-2-ylamino)-3-methoxy-N-(8-methyl-8-azabicyclo[3.2.1]octan-3-yl)benzamide] | ≤ 2 | – | – |
| COc1cc(C(=O)NN2CCN(C3CCCC3)CC2)ccc1Nc1ncc2c(n1)N(C1CCCCC1)CC(F)(F)C(=O)N2C [Compound 52, 4-(9-cyclohexyl-7,7-difluoro-5-methyl-6-oxo-6,7,8,9-tetrahydro-5H-pyrimido[4,5-b][1,4]diazepin-2-ylamino)-N-(4-cyclopentylpiperazin-1-yl)-3-methoxybenzamide] | > 2 | 98 to 99 | – |
| CN1CCC(NC(=O)c2ccc(Nc3ncc4c(n3)N(C3CCCC3)CC(F)(F)C(=O)N4C)c(Cl)c2)CC1 [Compound 24, 3-Chloro-4-(9-cyclopentyl-7,7-difluoro-5-methyl-6-oxo-6,7,8,9-tetrahydro-5H-pyrimido[4,5-b][1,4]diazepin-2-ylamino)-N-(1-methylpiperidin-4-yl)benzamide] | > 2 | – | – |
